Experimental data from patent publication US5693805A, “Process to derivatives of piperizinylcamphorsulfonyl oxytocin antagonists” (Merck & Co., Inc., priority 1995, dated 1997).

Biological target: T1, uterine OT receptors (Rattus norvegicus, UniProt P70536)
T1 construct: from tissue; host or cells: uterus of DES-treated rats, crude membrane preparation
T1 sequence (P70536 1-388): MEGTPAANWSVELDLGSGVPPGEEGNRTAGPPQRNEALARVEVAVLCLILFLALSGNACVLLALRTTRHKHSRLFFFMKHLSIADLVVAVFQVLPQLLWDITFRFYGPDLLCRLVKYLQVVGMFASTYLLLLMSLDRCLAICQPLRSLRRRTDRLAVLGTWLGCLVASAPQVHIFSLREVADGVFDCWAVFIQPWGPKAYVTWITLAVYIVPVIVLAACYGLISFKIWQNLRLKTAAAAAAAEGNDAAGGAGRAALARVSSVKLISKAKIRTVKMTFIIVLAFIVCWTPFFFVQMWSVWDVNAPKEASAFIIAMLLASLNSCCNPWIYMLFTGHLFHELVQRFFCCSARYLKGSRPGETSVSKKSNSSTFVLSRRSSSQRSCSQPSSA
Assay: [3H]Oxytocin radioligand binding assay to uterine OT receptors (crude membrane preparation of uteri from DES-treated rats)
Settings: competition at equilibrium, 60 min, 22° C., 1 nM [3H]OT, pH 7.4; Ki = IC50/1+c/Kd, Kd [3H]OT (uterus) 0.7 nM; three to six separate determinations
Method: The high affinity binding of [^3 H] […] Competition studies were conducted at equilibrium (60 minutes; 22° C.) using 1 nM[^3 H]OT in the following assay buffer: 50 mM Tris-HCl, 5 mM MgCl2, and 0.1% BSA, pH 7.4.

With Cc1ccccc1N1CCN(S(=O)(=O)C[C@]23CC[C@H](C[C@@H]2NC(=O)[C@@H](N)CCS(C)(=O)=O)C3(C)C)CC1 [Compound I] the Ki was 7.7 nM.
